Assay results taken from US20230026259A1, “CA2 COMPOSITIONS AND METHODS FOR TUNABLE REGULATION” (Obsidian Therapeutics, Inc., priority 2019, published 2023).

Tests used:
Format in all cases: cell-based
[1] = system: NIH3T3 cells; assay: Destabilization mutant screening of human CA2 linked to GFP, ligand response by FACS (Valdecoxib, Celecoxib, Acetazolamide)
Protocol: To identify destabilizing mutations of human CA2 that are stabilized upon ligand binding to CA2, two rounds of mutant screening were performed, using a lentivirus CA2 mutant library provided by Genscript (China). These methods were used to generate a library of mutant polypeptides using mutagenesis primers and error prone PCR. Lentiviral vectors expressing the template, wild-type human CA2 operably linked to GFP(OT-001986) was also provided by Genscript along with the CA2 mutant library. The library was packaged into lentivirus, transduced into NIH3T3 cells at a multiplicity of infection (MOI) of approximately 0.3 and select stable cell pools were derived by selecting with selection marker puromycin.
To identify cell pools containing destabilizing mutants of CA2 that are stabilizing when CA2 is bound to its corresponding ligand, cells were sorted using FACS. In the initial round, the bottom 15% of population that was GFP negative in the absence of ligand was selected. Cells were expanded and then treated with 10 μM Celecoxib for 24 hours and harvested for cell sorting. The top 11% GFP positive cells which were also responsive to ligand treatment compared to untreated were collected. Celecoxib was removed from the cultures and replaced with DMSO. […] Genomic DNA was isolated and amplified CA2 mutants were reintroduced to the lentiviral vectors where CA2 was operably linked to GFP. The constructs were transduced into NIH3T3 cells with lentivirus vectors for each clone. The cells were treated with 10 μM Valdecoxib or 10 μM Celecoxib for 24 hours and analyzed by FACS. […] In Table 25, the Construct ID (OT-XXXXXX) refers to the construct which includes the referenced CA2 mutant and the Library ID (LibCXXXXXX) refers to the CA2 mutant itself.
The response of NIH3T3 cells to varying doses of Valdecoxib or Celecoxib for 24 hours was measured and analyzed by FACS.
Clones treated with different ligands were compared to examine the behavior of each mutant with the ligands.

[2] = system: NIH3T3 cells; assay: Immunoblotting of cell lysates for GFP after ligand treatment; conditions: 24 hours
Protocol: The protein expression in the presence of ligand was measured by immunoblotting the cell lysates for GFP.
The protein expression in the presence of ligand was measured by immunoblotting cell lysates for GFP.

[3] = system: NIH3T3 cells; assay: Destabilization mutant screening of human CA2 linked to GFP, ligand response by FACS (Valdecoxib, Celecoxib, Acetazolamide); remark: listed apart in the source
[4] = NIH3T3, Celecoxib 0 μM, 24 hours
[5] = NIH3T3, Celecoxib 0.03 μM, 24 hours
[6] = NIH3T3, Celecoxib 0.1 μM, 24 hours
[7] = NIH3T3, Celecoxib 0.3 μM, 24 hours
[8] = NIH3T3, Celecoxib 1 μM, 24 hours
[9] = NIH3T3, Celecoxib 3 μM, 24 hours
[10] = NIH3T3, Celecoxib 10 μM, 24 hours
[11] = NIH3T3, Celecoxib 30 μM, 24 hours
[12] = NIH3T3, Valdecoxib 0 μM, 24 hours
[13] = NIH3T3, Valdecoxib 0.03 μM, 24 hours
[14] = NIH3T3, Valdecoxib 0.1 μM, 24 hours
[15] = NIH3T3, Valdecoxib 0.3 μM, 24 hours
[16] = NIH3T3, Valdecoxib 1 μM, 24 hours
[17] = NIH3T3, Valdecoxib 3 μM, 24 hours
[18] = NIH3T3, Valdecoxib 10 μM, 24 hours
[19] = NIH3T3, Valdecoxib 30 μM, 24 hours

Substance: CA2 (aa 2-260 of WT, L156H) [LibC000208]
- Median PE ([1]; NIH3T3, 10 μM Celecoxib): 8690
- SR (stabilization ratio) ([1]; NIH3T3, 10 μM Celecoxib vs DMSO): 9.38
- Median PE ([1]; NIH3T3, 10 μM Valdecoxib): 8006
- SR (stabilization ratio) ([1]; NIH3T3, 10 μM Valdecoxib vs DMSO): 8.65
- Median FITC / Median PE ([1]; NIH3T3, Acetazolamide 0.03 μM, 24 hours): 1190
- Fold change ([1]; NIH3T3, Acetazolamide 0.1 μM vs DMSO): 2.82
- Median FITC / Median PE ([1]; NIH3T3, Acetazolamide 0.1 μM, 24 hours): 2137
- Fold change ([1]; NIH3T3, Acetazolamide 0.3 μM vs DMSO): 6.23
- Median FITC / Median PE ([1]; NIH3T3, Acetazolamide 0.3 μM, 24 hours): 4715
- Fold change ([1]; NIH3T3, Acetazolamide 1 μM vs DMSO): 13.17
- Median FITC / Median PE ([1]; NIH3T3, Acetazolamide 1 μM, 24 hours): 9970
- Fold change ([1]; NIH3T3, Acetazolamide 3 μM vs DMSO): 18.36
- Median FITC / Median PE ([1]; NIH3T3, Acetazolamide 3 μM, 24 hours): 13900
- MFI, comparative analysis ([1]; NIH3T3, Acetazolamide 10 μM): 16900
- Fold change ([1]; NIH3T3, Acetazolamide 10 μM vs DMSO): 22.32
- Median FITC / Median PE ([1]; NIH3T3, Acetazolamide 10 μM, 24 hours): 16900
- MFI, comparative analysis ([1]; NIH3T3, Acetazolamide 30 μM): 17800
- Fold change ([1]; NIH3T3, Acetazolamide 30 μM vs DMSO): 23.51
- Median FITC / Median PE ([1]; NIH3T3, Acetazolamide 30 μM, 24 hours): 17800
- Med (median fluorescence intensity) [1, 4]: 906
- SR (stabilization ratio) [1, 4]: 1
- Med (median fluorescence intensity) [1, 5]: 1017
- SR (stabilization ratio) [1, 5]: 1.12
- Med (median fluorescence intensity) [1, 6]: 1194
- SR (stabilization ratio) [1, 6]: 1.32
- Med (median fluorescence intensity) [1, 7]: 1457
- SR (stabilization ratio) [1, 7]: 1.61
- Med (median fluorescence intensity) [1, 8]: 2221
- SR (stabilization ratio) [1, 8]: 2.45
- Med (median fluorescence intensity) [1, 9]: 5404
- SR (stabilization ratio) [1, 9]: 5.96
- Med (median fluorescence intensity) [1, 10]: 9766
- SR (stabilization ratio) [1, 10]: 10.78
- Med (median fluorescence intensity) [1, 11]: 13200
- SR (stabilization ratio) [1, 11]: 14.57
- MFI, comparative analysis, normalized to parental day 1 ([1]; NIH3T3, Celecoxib μM (concentration not given)): 8707.036
- MFI, comparative analysis ([1]; NIH3T3, DMSO): 757
- Median PE ([1]; NIH3T3, DMSO): 926
- SR (stabilization ratio) ([1]; NIH3T3, DMSO (reference)): 1
- Median FITC / Median PE ([1]; NIH3T3, DMSO, 24 hours (Acetazolamide experiment)): 757
- Med (median fluorescence intensity) [1, 12]: 906
- SR (stabilization ratio) [1, 12]: 1
- Med (median fluorescence intensity) [1, 13]: 1049
- SR (stabilization ratio) [1, 13]: 1.16
- Med (median fluorescence intensity) [1, 14]: 1131
- SR (stabilization ratio) [1, 14]: 1.25
- Med (median fluorescence intensity) [1, 15]: 1219
- SR (stabilization ratio) [1, 15]: 1.35
- Med (median fluorescence intensity) [1, 16]: 1747
- SR (stabilization ratio) [1, 16]: 1.93
- Med (median fluorescence intensity) [1, 17]: 3603
- SR (stabilization ratio) [1, 17]: 3.98
- Med (median fluorescence intensity) [1, 18]: 8284
- SR (stabilization ratio) [1, 18]: 9.14
- Med (median fluorescence intensity) [1, 19]: 11300
- SR (stabilization ratio) [1, 19]: 12.48
- MFI, comparative analysis, normalized to parental day 1 ([1]; NIH3T3, Valdecoxib μM (concentration not given)): 7385.735
- stabilization with varying doses of Valdecoxib or Celecoxib ([1]; NIH3T3 cells, 24 hours, FACS): dose dependent stabilization
- GFP protein expression by immunoblot, Acetazolamide ([2]; NIH3T3 cells, 0.3, 1, 3, 10 or 30 μM Acetazolamide): stabilization of GFP with increasing ligand doses
- GFP protein expression by immunoblot, Celecoxib or Valdecoxib ([2]; NIH3T3 cells, 1, 3, 10 or 30 μM Celecoxib or Valdecoxib): stabilization of GFP with increasing ligand doses
- Fold change ([3]; NIH3T3, Acetazolamide 0.03 μM vs DMSO): 1.57
- Fold change ([3]; NIH3T3, DMSO (reference), Acetazolamide experiment): 1
- GFP expression with varying doses of Acetazolamide ([3]; NIH3T3 cells, 24 hours, FACS): dose response stabilization of GFP expression
